In publication PMC6986909 (Nature, 2020):

Columns and labels:
Format in all cases: biochemical
[1] = target: T1, AcrIII-1 YddF (Bacillus subtilis, UniProt P96643); assay: single-turnover cleavage of […]-labelled cA4, denaturing PAGE / TLC; details: 8 uM dimer, MES pH 6.0, 100 mM NaCl, 1 mM EDTA, 37 °C; labelled compound
T1 sequence (P96643 1-108): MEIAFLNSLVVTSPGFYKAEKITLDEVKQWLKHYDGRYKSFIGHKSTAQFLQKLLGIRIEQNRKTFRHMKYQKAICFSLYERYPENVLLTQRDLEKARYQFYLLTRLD

[2] = target: T2, Crn1 Sso2081 (Saccharolobus solfataricus, UniProt Q7LYJ6); assay: as above; details: 4 uM dimer, Tris-HCl pH 8.0, 100 mM NaCl, 1 mM EDTA, 50 °C; labelled compound
T2 sequence (Q7LYJ6 1-178): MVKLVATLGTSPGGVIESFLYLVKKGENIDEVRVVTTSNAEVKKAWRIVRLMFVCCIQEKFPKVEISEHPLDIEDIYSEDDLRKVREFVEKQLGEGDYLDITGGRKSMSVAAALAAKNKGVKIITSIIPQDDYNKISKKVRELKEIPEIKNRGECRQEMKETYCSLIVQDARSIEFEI

[3] = target: T3, AcrIII-1 SIRV1 gp29 (Sulfolobus islandicus rod-shaped virus 1, UniProt Q8QL27); assay: degradation of unlabelled cA6, TLC under […] nm UV; details: 40 uM dimer, 450 uM cA6, MES pH 5.5, 70 °C; weak substrate, very slow
T3 sequence (Q8QL27 1-114): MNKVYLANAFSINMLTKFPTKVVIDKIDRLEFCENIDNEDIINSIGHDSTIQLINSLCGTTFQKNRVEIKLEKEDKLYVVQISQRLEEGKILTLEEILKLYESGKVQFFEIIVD

SMILES	single-turnover cleavage of 32P-labelled cA4, denaturing PAGE / TLC [1]	single-turnover cleavage of 32P-labelled cA4, denaturing PAGE / TLC [2]	degradation of unlabelled cA6, TLC under 254 nm UV [3]
Nc1ncnc2c1ncn2[C@@H]1O[C@@H]2COP(=O)(O)O[C@H]3[C@@H](O)[C@H](n4cnc5c(N)ncnc54)O[C@@H]3COP(=O)(O)O[C@H]3[C@@H](O)[C@H](n4cnc5c(N)ncnc54)O[C@@H]3COP(=O)(O)O[C@H]3[C@@H](O)[C@H](n4cnc5c(N)ncnc54)O[C@@H]3COP(=O)(O)O[C@H]2[C@H]1O [cA4]	Both proteins possess a potent ring nuclease activity, rapidly degrading cA4	Kinetic comparison of cA4 degradation by the AcrIII-1 enzymes SIRV1 gp29 and YddF	
Nc1ncnc2c1ncn2[C@@H]1O[C@@H]2COP(=O)(O)O[C@H]3[C@@H](O)[C@H](n4cnc5c(N)ncnc54)O[C@@H]3COP(=O)(O)O[C@H]3[C@@H](O)[C@H](n4cnc5c(N)ncnc54)O[C@@H]3COP(=O)(O)O[C@H]3[C@@H](O)[C@H](n4cnc5c(N)ncnc54)O[C@@H]3COP(=O)(O)O[C@H]3[C@@H](O)[C@H](n4cnc5c(N)ncnc54)O[C@@H]3COP(=O)(O)O[C@H]3[C@@H](O)[C@H](n4cnc5c(N)ncnc54)O[C@@H]3COP(=O)(O)O[C@H]2[C@H]1O [cA6]			strong preference for cA4 over cA6, with the latter degraded very slowly by comparison
